Measured values taken from US12280068B1 (ZYLORION HEALTH INC., priority 2023, dated 2025).

Tests used:
h5HT2A = biological target: T1, h5HT2A (Homo sapiens, UniProt P28223); assay: NanoBit βarrestin2 recruitment assay in CHO-K1 cells; type: cell-based
T1 construct: expressed in transfected cells; host or cells: CHO-K1 cells, transient transfection with Lipofectamine 3000
From the text: Cell Culture—CHO-K1 cells were transfected with either NanoBit™ smBIT h5HT2A plasmids and lgBiT βarrestin2 plasmid. When h5HT2A and βarrestin2 come into contact with one another the smBiT and lgBiT peptides complement each other to produce a complete NanoBit™ luciferase enzyme. When complete, the enzyme is able to catalyze the breakdown of the molecule coelenterazine to produce light. Emitted light levels are proportional to interactions between receptor and βarrestin2. Cells were maintained at 37° C., 5% CO2 in F-12 DMEM containing 1 mM L-glutamine, 10% FBS, and 1% Pen/Strep. For transfections, CHO-K1 cells were seeded in 6-well plates (500,000 cells per well) and incubated overnight in standard media as described above. Following overnight incubation, the cells were transfected with 1 μg of both the h5HT2A and the βarr2 NanoBiT plasmids. Transfections were carried out using Lipofectamine 3000 (Fisher Scientific, Ottawa, ON), according to the manufacturer's protocol in Opti-MEM media containing 1% FBS.
βarrestin2 assay—After seeding at 20,000 cells/well in flat bottom, white bottom, white wall, poly-D-lysine coated 96-well plates, transfected CHO-K1 cells were rinsed twice with Hank's buffered salt solution (HBSS), and 100 μL of HBSS was added to each of the wells. To this, 25 μL of Nano-Glo Live Cell Substrate was added (diluted 1/20 in the Nano-Glo LCS Dilution buffer, according to the manufacturer's protocol), and the plate was transferred to a Cytation5 plate reader. […] AUC data were then used for subsequent analyses.

human 5HT2A = biological target: T2, human 5HT2A (Homo sapiens, UniProt P28223); assay: AequoScreen Ca2+ release assay in CHO-K1 cells; type: cell-based; conditions: for 5-HT2A-dependent Ca^2+ release Efficacy (% ± S.E.M.): CHO-K1 cells expressing h5HT2A
T2 construct: expressed in transfected cells
Method: Cell Culture—AequoScreen™ Chinese hamster ovary (CHO)-K1 cells stably expressing human 5HT2A or 5HT2B (h5HT2A, h5HT2B) were maintained at 37° C., 5% CO2 in F-12 DMEM containing 1 mM L-glutamine, 10% FBS, and 1% Pen/Strep.
Ca^2+ Assay—Release of Ca^2+ into the cellular cytosol upon GPCR-dependent activation of Gaq/11 was determined using the AequoScreen™ assay in CHO-K1 cells stably expressing h5HT2A or h5HT2B. […] Upon binding Ca^2+, apoaequorin becomes activated to aequorin and converts coelenterazine to coelenteramide, CO2, and light. Light production is therefore directly proportional to the release of Ca^2+ from intracellular stores upon GPCR activation. Cells were seeded into flat bottom, white bottom, white wall, poly-D-lysine coated 96-well plates (20,000 cells/well) and incubated overnight in Opti-MEM containing 1% FBS at 37° C. and 5% CO2. Following this, Opti-MEM media was removed and replaced with fresh Opti-MEM containing 5 μM coelenterazine h (Promega, Madison, WI) and 1% FBS (final volume 50 μL) and cells were incubated at 25° C. for 4 h. After these 4 h, cells were treated with 50 μL 2× concentrated ligand solutions to achieve the concentrations indicated and centrifuged at 1,000×g for 1 min at room temperature. Chemiluminescence was then immediately measured on a Cytation5 plate reader (top read, gain 200, integration time 10,000 msec).

[1] = CHO-K1 cells, AUC of first 30 min

T2 sequence (P28223 whole entry): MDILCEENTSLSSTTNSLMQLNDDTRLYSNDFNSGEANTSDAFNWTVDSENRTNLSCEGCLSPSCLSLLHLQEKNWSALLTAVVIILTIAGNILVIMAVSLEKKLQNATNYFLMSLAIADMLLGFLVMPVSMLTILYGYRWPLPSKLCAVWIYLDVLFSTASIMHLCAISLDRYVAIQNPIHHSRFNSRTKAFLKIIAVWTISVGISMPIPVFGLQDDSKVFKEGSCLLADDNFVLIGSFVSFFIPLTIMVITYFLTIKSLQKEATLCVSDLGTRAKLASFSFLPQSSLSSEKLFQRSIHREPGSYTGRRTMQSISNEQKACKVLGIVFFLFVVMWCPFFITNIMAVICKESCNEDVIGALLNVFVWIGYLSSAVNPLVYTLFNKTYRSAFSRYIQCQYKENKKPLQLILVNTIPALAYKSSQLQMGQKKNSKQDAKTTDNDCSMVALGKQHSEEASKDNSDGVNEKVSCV
T1 sequence (P28223 whole entry): as above
T1 sequence (P32121 whole entry, further chain): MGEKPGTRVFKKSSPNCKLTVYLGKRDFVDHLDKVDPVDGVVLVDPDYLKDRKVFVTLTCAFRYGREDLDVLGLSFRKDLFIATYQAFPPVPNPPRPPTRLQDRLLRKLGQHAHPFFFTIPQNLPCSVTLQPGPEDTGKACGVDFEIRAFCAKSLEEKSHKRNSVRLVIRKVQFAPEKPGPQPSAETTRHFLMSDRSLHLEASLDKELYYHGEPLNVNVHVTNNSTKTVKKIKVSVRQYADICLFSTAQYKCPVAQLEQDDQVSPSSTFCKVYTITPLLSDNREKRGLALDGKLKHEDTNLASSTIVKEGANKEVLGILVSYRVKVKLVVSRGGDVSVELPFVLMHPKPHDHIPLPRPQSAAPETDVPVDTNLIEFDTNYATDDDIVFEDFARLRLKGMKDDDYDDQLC

| Structure (SMILES) | 5-HT2A-dependent βarrestin2 recruitment Efficacy (% ± S.E.M.) (h5HT2A; [1]) | 5-HT2A-dependent Ca^2+ release Efficacy (% ± S.E.M.) (human 5HT2A) | 5-HT2A-dependent βarrestin2 recruitment Potency (nM) (h5HT2A; [1]) | 5-HT2A Ca^2+ release activity (in words) (human 5HT2A) | 5-HT2A βarrestin2 recruitment activity (in words) (h5HT2A) |
| --- | --- | --- | --- | --- | --- |
| NCCc1c[nH]c2ccc(O)cc12 [Serotonin (5HT), 5-hydroxytryptamine] | 37 ± 16% |  |  |  |  |
| CN(C)CCc1c[nH]c2cccc(OP(=O)(O)O)c12 [Psilocybin] | 3.7 ± 22% | 69 ± 15% | not converged |  |  |
| CN(C)CCc1c[nH]c2cccc(O)c12 [Psilocin] | 45 ± 15% | 69 ± 12% |  | high potency | intermediate potency |
| CCN(CC)C(=O)[C@@H]1C=C2c3cccc4[nH]cc(c34)C[C@H]2N(C)C1 [LSD, lysergic acid diethylamide] | 83 ± 4.7% | 82 ± 4.7% |  |  |  |
